# Test results from ChEMBL document CHEMBL5214890 (Eur J Med Chem, 2021).
# Calls of active or inactive are those of the source. The rule behind the calls is not given here. Where a SMILES comes first, the peptide text is derived from it. [ ]: non-standard residue; d: D form. ξ: configuration not given here. Thr(3ξ) = CC(O)[C@H](N)C(=O)O; Aib = CC(C)(N)C(=O)O
# Key:
# [1] = target: T1, Glucagon-like peptide 1 receptor (Homo sapiens, UniProt P43220); experiment: Agonist activity at human GLP-1R expressed in HEK293 cells incubated for 30 mins and assessed as increase in cAMP accumulation measured by HTRF assay; assay type: functional, cell-based
# [2] = target: T1, Glucagon-like peptide 1 receptor; experiment: Agonist activity at human GLP-1R expressed in HEK293 cells incubated for 30 mins and assessed as increase in cAMP accumulation measured by HTRF assay relative to control; assay type: functional, cell-based; parameters: concentration or dose not given beside the values
# [3] = target: Glucagon receptor (Homo sapiens, UniProt P47871); experiment: Agonist activity at human GCGR expressed in HEK293 cells incubated for 30 mins and assessed as increase in cAMP accumulation measured by HTRF assay; assay type: functional, cell-based
# [4] = system: Mus musculus; experiment: Antidiabetic activity in male […] assessed as reduction in body weight at 30 nmol/kg, sc administered twice daily for 3 weeks; assay type: functional; parameters: scale not given: the % may be the effect or the level left
# [5] = system: Mus musculus; experiment: Antidiabetic activity in male […] assessed as reduction in fasted glucose level at 30 nmol/kg, sc administered twice daily for 3 weeks; assay type: functional, organism-based
# [6] = system: Mus musculus; experiment: Antidiabetic activity in male […] assessed as increase in plasma insulin level at 30 nmol/kg, sc administered twice daily for 3 weeks; assay type: functional, organism-based
# [7] = system: Mus musculus; experiment: Antidiabetic activity in male […] assessed as increase in plasma FGF21 level at 30 nmol/kg, sc administered twice daily for 3 weeks; assay type: functional, organism-based
# [8] = system: Mus musculus; experiment: Antidiabetic activity in male […] assessed as decrease in serum LDL-C level at 30 nmol/kg, sc administered twice daily for 3 weeks; assay type: functional, organism-based
# [9] = system: Mus musculus; experiment: Antidiabetic activity in male […] assessed as increase in serum HDL/LDL ratio at 30 nmol/kg, sc administered twice daily for 3 weeks; assay type: functional, organism-based
# [10] = Toxicity in male […] assessed as normalization of hepatic lipid content at 30 nmol/kg, sc administered twice daily for 3 weeks; assay type: organism-based; settings: in vivo, 504 h
# T1 sequence (P43220 whole entry): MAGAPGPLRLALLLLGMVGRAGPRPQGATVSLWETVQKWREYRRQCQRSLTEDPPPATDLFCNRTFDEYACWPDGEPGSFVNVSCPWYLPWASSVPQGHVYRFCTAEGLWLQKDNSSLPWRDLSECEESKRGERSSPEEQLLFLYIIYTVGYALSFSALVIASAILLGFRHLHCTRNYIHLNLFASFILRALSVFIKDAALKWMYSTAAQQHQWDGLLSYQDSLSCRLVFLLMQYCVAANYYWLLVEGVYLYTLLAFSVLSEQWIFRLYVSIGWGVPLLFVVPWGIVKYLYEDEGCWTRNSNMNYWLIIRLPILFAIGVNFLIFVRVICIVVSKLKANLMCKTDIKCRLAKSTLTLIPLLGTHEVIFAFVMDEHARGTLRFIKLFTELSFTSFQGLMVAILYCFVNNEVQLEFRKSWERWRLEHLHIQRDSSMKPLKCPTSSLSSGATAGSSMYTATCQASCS
# Sequence of Glucagon receptor (P47871 whole entry): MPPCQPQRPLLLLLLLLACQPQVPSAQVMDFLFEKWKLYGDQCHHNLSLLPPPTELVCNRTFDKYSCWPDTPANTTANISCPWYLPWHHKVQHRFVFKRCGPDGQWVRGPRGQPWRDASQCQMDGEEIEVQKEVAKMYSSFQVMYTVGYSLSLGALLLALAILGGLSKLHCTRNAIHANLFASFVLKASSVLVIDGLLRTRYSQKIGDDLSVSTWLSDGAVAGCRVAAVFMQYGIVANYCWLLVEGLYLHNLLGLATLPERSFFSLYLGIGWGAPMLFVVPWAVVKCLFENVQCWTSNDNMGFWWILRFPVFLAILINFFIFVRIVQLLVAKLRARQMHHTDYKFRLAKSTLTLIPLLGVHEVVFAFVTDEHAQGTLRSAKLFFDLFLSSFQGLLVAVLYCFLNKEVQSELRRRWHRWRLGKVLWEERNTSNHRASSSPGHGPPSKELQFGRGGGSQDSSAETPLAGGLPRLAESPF
EC50 [1] [nM],EC50 [3] [nM],Activity [2] [%],Compound,further results
0.73,0.43,5.6,CC[C@H](C)[C@H](NC(=O)[C@H](Cc1ccccc1)NC(=O)[C@H](CC(=O)O)NC(=O)[C@H](CCC(N)=O)NC(=O)[C@H](C)NC(=O)[C@H](CCCNC(=N)N)NC(=O)[C@H](CCCNC(=N)N)NC(=O)[C@H](CO)NC(=O)[C@H](CC(=O)O)NC(=O)[C@H](CC(C)C)NC(=O)[C@H](Cc1ccc(O)cc1)NC(=O)[C@H](CCC(N)=O)NC(=O)[C@@H](NC(=O)[C@@H](NC(=O)[C@H](CC(=O)O)NC(=O)[C@H](CC(N)=O)NC(=O)[C@@H](NC(=O)[C@H](Cc1ccc(O)cc1)NC(=O)[C@@H](NC(=O)CNC(=O)[C@H](CCC(N)=O)NC(=O)[C@H](CO)NC(=O)[C@@H](N)Cc1c[nH]cn1)[C@@H](C)O)[C@@H](C)O)C(C)C)[C@@H](C)O)C(=O)N[C@@H](CCC(=O)O)C(=O)N[C@@H](Cc1c[nH]c2ccccc12)C(=O)N[C@@H](CC(C)C)C(=O)N[C@@H](CCSC)C(=O)N[C@@H](CC(N)=O)C(=O)N[C@H](C(N)=O)C(C)O (some centres undefined) (H-HSQGTYTNDVTQYLDSRRAQDFIEWLMN[Thr(3ξ)]-NH2),
0.62,0.93,6.6,H-HSQGTYTNDVTQYLDSRRAQQFIEWLMNTKRNRNNIA-NH2,
0.68,0.41,6,CC[C@H](C)[C@H](NC(=O)[C@H](Cc1ccccc1)NC(=O)[C@H](CC(=O)O)NC(=O)[C@H](CCC(N)=O)NC(=O)[C@H](C)NC(=O)[C@H](CCCNC(=N)N)NC(=O)[C@H](CCCNC(=N)N)NC(=O)[C@H](CO)NC(=O)[C@H](CC(=O)O)NC(=O)[C@H](CC(C)C)NC(=O)[C@H](Cc1ccc(O)cc1)NC(=O)[C@H](CCCCN)NC(=O)[C@H](CO)NC(=O)[C@@H](NC(=O)[C@H](CC(=O)O)NC(=O)[C@H](CC(N)=O)NC(=O)[C@@H](NC(=O)[C@H](Cc1ccc(O)cc1)NC(=O)[C@@H](NC(=O)CNC(=O)[C@H](CCC(N)=O)NC(=O)[C@H](CO)NC(=O)[C@@H](N)Cc1c[nH]cn1)[C@@H](C)O)[C@@H](C)O)C(C)C)C(=O)N[C@@H](CCC(=O)O)C(=O)N[C@@H](Cc1c[nH]c2ccccc12)C(=O)N[C@@H](CC(C)C)C(=O)N[C@@H](CCSC)C(=O)N[C@@H](CC(N)=O)C(=O)N[C@H](C(N)=O)C(C)O (some centres undefined) (H-HSQGTYTNDVSKYLDSRRAQDFIEWLMN[Thr(3ξ)]-NH2),
0.56,1.9,7.3,H-HSQGTYTNDVSKYLDSRRAQDFIEWLIKG-NH2,
0.041,> 1000,,CC[C@H](C)[C@H](NC(=O)[C@H](CC(C)C)NC(=O)[C@H](Cc1c[nH]c2ccccc12)NC(=O)[C@H](CCC(=O)O)NC(=O)[C@@H](NC(=O)[C@H](Cc1ccccc1)NC(=O)[C@H](CCC(=O)O)NC(=O)[C@H](CCCCN)NC(=O)[C@H](C)NC(=O)[C@H](C)NC(=O)[C@H](CCC(=O)O)NC(=O)[C@H](CCC(=O)O)NC(=O)[C@H](CCC(=O)O)NC(=O)[C@H](CC(C)C)NC(=O)[C@H](Cc1ccc(O)cc1)NC(=O)[C@H](CCC(=O)O)NC(=O)[C@@H](NC(=O)[C@@H](NC(=O)[C@H](CC(=O)O)NC(=O)[C@H](CC(N)=O)NC(=O)[C@@H](NC(=O)[C@H](Cc1ccc(O)cc1)NC(=O)[C@@H](NC(=O)CNC(=O)[C@H](CCC(=O)O)NC(=O)C(C)(C)NC(=O)[C@@H](N)Cc1c[nH]cn1)[C@@H](C)O)[C@@H](C)O)C(C)C)[C@@H](C)O)[C@@H](C)CC)C(=O)N[C@@H](CCCCN)C(=O)NCC(=O)N[C@@H](CCCCN)C(N)=O (H-H[Aib]EGTYTNDVTEYLEEEAAKEFIEWLIKGK-NH2),Activity ([2]; filed as agonist): 100%
0.57,0.42,7.2,H-HSQGTYTNDVSKYLDSRRAQQFIEWLMNTKRNRNNIA-NH2,
0.12,2.6,34.2,H-HSQGTYTNDVTEYLDSRRAQDFIEWLIKGK-NH2,
0.078,0.28,,H-HSQGTYTNDVSKYLDSRRAQDFIEWLIKGKRNRNNIA-NH2,Activity ([2]; filed as agonist): 52.6%
0.16,2.7,25.6,H-HSQGTYTNDVTEYLDSRRAQEFIEWLIKGK-NH2,
0.14,1.3,29.3,H-HSQGTYTNDVSKYLDSRRAQDFIEWLIKGK-NH2,

# More lines, now with the values behind:
Compound,EC50 [1] [nM],EC50 [3] [nM],Activity [2] [%],further results
CCCCCCCCCCCCCCCC(=O)N[C@@H](CCC(=O)NCCCC[C@H](NC(=O)[C@H](CO)NC(=O)[C@@H]1CCCN1C(=O)[C@@H]1CCCN1C(=O)[C@@H]1CCCN1C(=O)[C@H](C)NC(=O)CNC(=O)[C@H](CO)NC(=O)[C@H](CO)NC(=O)[C@@H]1CCCN1C(=O)CNC(=O)CNC(=O)[C@H](CC(N)=O)NC(=O)[C@H](CCCCN)NC(=O)[C@H](CC(C)C)NC(=O)[C@H](Cc1c[nH]c2ccccc12)NC(=O)[C@H](CCC(=O)O)NC(=O)[C@@H](NC(=O)[C@H](Cc1ccccc1)NC(=O)[C@H](CC(=O)O)NC(=O)[C@H](CCC(N)=O)NC(=O)[C@H](C)NC(=O)[C@H](CCCNC(=N)N)NC(=O)[C@H](CCCNC(=N)N)NC(=O)[C@H](CO)NC(=O)[C@H](CC(=O)O)NC(=O)[C@H](CC(C)C)NC(=O)[C@H](Cc1ccc(O)cc1)NC(=O)[C@H](CCCCN)NC(=O)[C@H](CO)NC(=O)[C@@H](NC(=O)[C@H](CC(=O)O)NC(=O)[C@H](CC(N)=O)NC(=O)[C@@H](NC(=O)[C@H](Cc1ccc(O)cc1)NC(=O)[C@@H](NC(=O)CNC(=O)[C@H](CCC(N)=O)NC(=O)[C@@H](CO)NC(=O)[C@@H](N)Cc1c[nH]cn1)[C@@H](C)O)[C@@H](C)O)C(C)C)[C@@H](C)CC)C(N)=O)C(=O)O,0.086,0.28,,Activity ([2]; filed as agonist): 47.7%
CCCCCCCCCCCCCCCC(=O)N[C@@H](CCC(=O)N[C@@H](CCC(=O)NCCCC[C@H](NC(=O)[C@H](CC(=O)O)NC(=O)[C@H](CO)NC(=O)[C@@H](NC(=O)[C@H](Cc1ccccc1)NC(=O)[C@@H](NC(=O)CNC(=O)[C@H](CCC(N)=O)NC(=O)[C@H](CO)NC(=O)[C@@H](N)Cc1cnc[nH]1)[C@@H](C)O)[C@@H](C)O)C(=O)N[C@@H](CO)C(=O)N[C@@H](CCC(=O)O)C(=O)N[C@@H](Cc1ccc(O)cc1)C(=O)N[C@@H](CC(C)C)C(=O)N[C@@H](CC(=O)O)C(=O)N[C@@H](CO)C(=O)N[C@@H](CCC(=O)O)C(=O)N[C@@H](CCCNC(=N)N)C(=O)N[C@@H](C)C(=O)N[C@@H](CCCNC(=N)N)C(=O)N[C@@H](CC(=O)O)C(=O)N[C@@H](Cc1ccccc1)C(=O)N[C@H](C(=O)N[C@@H](C)C(=O)N[C@@H](Cc1c[nH]c2ccccc12)C(=O)N[C@@H](CC(C)C)C(=O)N[C@@H](CCC(=O)O)C(=O)N[C@@H](C)C(=O)NCC(=O)NCC(=O)O)C(C)C)C(=O)O)C(=O)O,,,,Activity [4]: 26.4%; Activity [5]: Active; Activity [6]: Active; Activity [7]: Active; Activity [8]: Active; Activity [9]: Active; Activity [10]: Non-Toxic
H-HSQGTYTNDVTEYLDSRRAQDFIEWLIKGKPSSGAPPPS-NH2,0.45,1.3,9.1,
H-HSQGTYTNDVSKYLDSRRAQDFIEWLKNGGPSSGAPPPS-NH2,0.053,0.15,,Activity ([2]; filed as agonist): 77.4%
CCCCCCCCCCCCCCCC(=O)N[C@H](CCC(=O)NCCCC[C@H](NC(=O)[C@H](CO)NC(=O)[C@@H](NC(=O)[C@H](CC(=O)O)NC(=O)[C@H](CC(N)=O)NC(=O)[C@@H](NC(=O)[C@H](Cc1ccc(O)cc1)NC(=O)[C@@H](NC(=O)CNC(=O)[C@H](CCC(N)=O)NC(=O)[C@@H](CO)NC(=O)[C@@H](N)Cc1c[nH]cn1)[C@@H](C)O)[C@@H](C)O)C(C)C)C(=O)N[C@@H](Cc1ccc(O)cc1)C(=O)N[C@@H](CC(C)C)C(=O)N[C@@H](CC(=O)O)C(=O)N[C@@H](CO)C(=O)N[C@@H](CCCNC(=N)N)C(=O)N[C@@H](CCCNC(=N)N)C(=O)N[C@@H](C)C(=O)N[C@@H](CCC(N)=O)C(=O)N[C@@H](CC(=O)O)C(=O)N[C@@H](Cc1ccccc1)C(=O)N[C@H](C(=O)N[C@@H](CCC(=O)O)C(=O)N[C@@H](Cc1c[nH]c2ccccc12)C(=O)N[C@@H](CC(C)C)C(=O)N[C@@H](CCCCN)C(=O)N[C@@H](CC(N)=O)C(=O)NCC(=O)NCC(=O)N1CCC[C@H]1C(=O)N[C@@H](CO)C(=O)N[C@@H](CO)C(=O)NCC(=O)N[C@@H](C)C(=O)N1CCC[C@H]1C(=O)N1CCC[C@H]1C(=O)N1CCC[C@H]1C(=O)N[C@@H](CO)C(N)=O)[C@@H](C)CC)C(=O)O,,,,EC50 ([1]; hek293): 0.051 nM; Activity ([2]; filed as agonist): 80.4%
H-HSQGTYTNDVTEYLDSRRAQDFIEWLKNGGPSSGAPPPS-NH2,0.22,39,18.6,
H-HSQGTYTNDVSKYLDSRRAQDFIEWLIKGKPSSGAPPPS-NH2,0.24,0.85,17.1,
